In article PMC8688955 (Frontiers in Pharmacology, 2021):
Like-named read-outs stand apart in the source and are kept apart here.

Target: T1, CI-AMPARs (Rattus norvegicus, UniProt P19491, Q607R)
T1 construct: activity against native calcium-permeable AMPA receptors (CP-AMPARs) and calcium-impermeable AMPA receptors (CI-AMPARs); endogenous in cells; host or cells: acutely isolated pyramidal neurons from the CA1 area of Wistar rat hippocampal slices
Assay: Whole-cell patch-clamp of kainate-induced currents in isolated hippocampal CA1 pyramidal neurons
Type: cell-based, Wistar rat
Details: for % block: representative recording; for inhibition at 30 µM: 30 µM phenytoin, n = 7; for inhibition at 100 µM: 100 µM phenytoin, read-out: % inhibition; for inhibition at 50 µM: n = 6
Protocol: All experimental procedures were approved by the Animal Care and Use Committee of the I.M. Sechenov Institute of Evolutionary Physiology and Biochemistry of the Russian Academy of Sciences. Wistar rats (13–19 days old) were anesthetized with sevoflurane and then decapitated. Maximum effort was made to minimize the number of animals used. Brains were removed quickly and cooled to 2–4°C in an ice bath. […] The antagonism of CI-AMPARs was studied on pyramidal neurons from the CA1 area of the hippocampus.
Series resistance of about 20 MΩ was compensated by 70–80% and monitored during experiments. Currents were recorded using an EPC-8 amplifier (HEKA Electronics, Lambrecht, Germany), filtered at 5 kHz, sampled, and stored on a personal computer. Drugs were applied using the RSC-200 perfusion system (BioLogic Science Instruments, Claix, France) under computer control. The solution exchange time in the whole-cell mode was 50–60 ms. […] The pipette solution contained (in mM) CsF 100, CsCl 40, NaCl 5, CaCl2 0.5, EGTA 5, and HEPES 10 (pH was adjusted to 7.2 with CsOH). Experiments were performed at room temperature (22–24°C). […] Lamotrigine, topiramate, levetiracetam, felbamate, carbamazepine, tiagabin, vigabatrin, zonisamide, and gabapentin were purchased from Tocris Bioscience (Bristol, United Kingdom). Perampanel was from MedChemExpress (Stockholm, Sweden). Kinetics of transient processes of more than 20-ms duration was approximated by exponential functions. Experiments were performed at −80 mV holding voltage. All experimental data are presented as mean ± SD estimated from at least four experiments. Significance of the effects was tested with paired t test. Differences were considered significant at p < 0.05. 3D structures of compounds were calculated by the ZMM software (zmmsoft.ca).

[1] = double-pulse protocol, 30-s pause

T1 sequence (P19491 22-883 Q607R): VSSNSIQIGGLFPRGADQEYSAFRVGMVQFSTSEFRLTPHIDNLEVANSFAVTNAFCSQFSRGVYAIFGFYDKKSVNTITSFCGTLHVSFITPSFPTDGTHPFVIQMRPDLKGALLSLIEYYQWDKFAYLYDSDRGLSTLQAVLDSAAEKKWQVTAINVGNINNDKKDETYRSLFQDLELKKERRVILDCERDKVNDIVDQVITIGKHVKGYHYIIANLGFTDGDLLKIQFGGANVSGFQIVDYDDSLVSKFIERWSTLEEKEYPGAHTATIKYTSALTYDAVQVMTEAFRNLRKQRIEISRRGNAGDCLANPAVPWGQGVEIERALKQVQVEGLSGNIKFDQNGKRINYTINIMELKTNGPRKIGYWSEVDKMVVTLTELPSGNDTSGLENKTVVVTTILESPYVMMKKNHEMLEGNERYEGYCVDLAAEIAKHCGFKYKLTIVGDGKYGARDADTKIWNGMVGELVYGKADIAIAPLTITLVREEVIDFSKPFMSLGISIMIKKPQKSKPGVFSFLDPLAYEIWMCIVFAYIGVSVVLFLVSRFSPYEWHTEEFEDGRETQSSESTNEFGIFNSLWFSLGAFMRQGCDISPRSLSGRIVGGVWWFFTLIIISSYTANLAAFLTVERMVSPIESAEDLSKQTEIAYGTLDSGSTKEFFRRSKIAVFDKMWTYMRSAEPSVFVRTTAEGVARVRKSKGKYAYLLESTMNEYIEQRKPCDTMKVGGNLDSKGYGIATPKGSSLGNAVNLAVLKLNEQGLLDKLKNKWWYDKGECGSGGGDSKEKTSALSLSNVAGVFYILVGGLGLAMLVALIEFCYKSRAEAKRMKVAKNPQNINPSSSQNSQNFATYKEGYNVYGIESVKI

With O=C1NC(=O)C(c2ccccc2)(c2ccccc2)N1 [Phenytoin] the “% block” value (10 μM phenytoin, Figure 1A) was 28%, the inhibition at 30 µM (50 µM kainate) was 55 ± 3% and the inhibition at 30 µM (500 µM kainate) was 40 ± 7%. For the same compound, the “% block” value (30 μM phenytoin, Figure 1A) was 52%, the “Washout kinetics τ” value (50 µM phenytoin) was 1,100 ± 200 ms and the “Activity drop in the presence of cyclothiazide” value (100 µM cyclothiazide, 50 µM kainate) was “Yes”. The inhibition at 100 µM (50 µM kainate, absence of cyclothiazide) was 74 ± 4%, the inhibition at 100 µM (50 µM kainate, presence of 100 µM cyclothiazide) was 21 ± 7% and the “% block” value (100 μM phenytoin, Figure 1A) was 75%. For the same compound, the inhibition at 300 µM (300 µM compound, read-out: percentage of inhibition at 300-µM concentration) was ≥ 80%, the “τ of the testing response to kainate in the trapping protocol” value (300 µM phenytoin, 500 µM kainate, n = 4) was 81 ± 17 ms and the inhibition at 300 µM (300 µM phenytoin, coapplication with agonist, n = 5, read-out: % inhibition of open AMPA receptor channels) was 87 ± 5%. The inhibition at 300 µM (300 µM phenytoin, preapplication without agonist, n = 5, read-out: % inhibition of closed AMPA receptor channels) was 37 ± 7%, the “% block” value (300 μM phenytoin, Figure 1A) was 87% and the “inhibition of kainate-induced currents” value (500 µM phenytoin, highest concentration tested) was “almost complete inhibition”. The “Activity drop at high (500 µM) kainate concentration” value (50 vs 500 µM kainate) was “Yes”, the “decrease in the % of inhibition with the increase in agonist concentration” value (50 vs 500 µM kainate) was 10–15% and the “% block” value (Phenytoin, 30 μM, Ka 50 μM, Figure 3A) was 57%. The “% block” value (Phenytoin, 30 μM, Ka 500 μM, Figure 3A) was 44%, the “% block” value (Phenytoin, 100 μM, Kainate, 50 μM + cyclothiazide, 100 μM, Figure 5C) was 19% and the “% block” value (Phenytoin, 100 μM, Kainate, 50 μM, Figure 5B) was 74%. For the same compound, the “Difference in the % of inhibition in coapplication and preapplication protocols” value (coapplication with kainate vs preapplication without kainate) was “Yes”, the “More active against CI-AMPARs” value (comparison of CI-AMPARs and CP-AMPARs) was “Yes” and the “Trap in kainate 100 µM” value [1] was “Yes”. For the same compound, the “Trap in kainate 500 µM” value [1] was “questionable”, the “Trap in kainate 100 µM” value (double-pulse protocol, 30-s pause, listed as phenytoin) was “pronounced trapping” and the Hill coefficient (inhibition of CI-AMPARs, Hill equation) was 0.9 ± 0.2. The inhibition at 50 µM (pH 7.4, 50 µM phenytoin, pH 7.4) was 60 ± 3%, the pH-dependence (pH 7.4 vs 9.0) was “Yes” and the inhibition at 50 µM (pH 9, 50 µM phenytoin, pH 9.0) was 28 ± 8%. The “% block” value (phenytoin 50 μM, pH 7.4, Kainate, 100 μM, Figure 10A) was 62% and the “% block” value (phenytoin 50 μM, pH 9.0, Kainate, 100 μM, Figure 10A) was 29%.
